pEC50: −log10 of the molar value. Values after ≈ are worked out from the molar mass of the structure shown.
Legend:
[1] = Selectivity index, ratio of cytotoxic IC50 for HEK293 cells to EC50 for anti-parasitic activity against Trypanosoma brucei brucei 427 bloodstream parasites; assay type: toxicity, cell-based; details: human, read-out: Ratio IC50/EC50
[2] = test system: Trypanosoma brucei brucei; experiment: Anti-parasitic activity against Trypanosoma brucei brucei 427 bloodstream parasites incubated for 48 hrs by alamar blue dye based assay; assay type: functional, organism-based; details: Trypanosoma brucei, 427, 48 h
[3] = Kinetic solubility in pH 2.0 0.01M HCl buffer by nephelometry; assay type: physicochemical; details: read-out: Kinetic_solubility
[4] = Kinetic solubility in pH 6.5 phosphate buffer by nephelometry; assay type: physicochemical; details: read-out: Kinetic_solubility
[5] = Toxicity against rat L6 cells incubated for 70 hrs by alamar blue dye based assay; assay type: cell-based
[6] = test system: Brain; experiment: Drug concentration in Swiss mouse brain at normalized dose of 1 mg/kg, iv after 5 mins by LC-MS method; assay type: ADME, organism-based; details: in vivo
[7] = Ratio of drug concentration in brain to plasma of Swiss mouse at normalized dose of 1 mg/kg, iv after 5 mins by LC-MS method; assay type: ADME, organism-based; details: read-out: BPR
[8] = biological target: serum albumin (Homo sapiens, UniProt P02768); experiment: Binding affinity to human serum albumin by chromatographic method; assay type: ADME; details: read-out: PB (converted)
[9] = test system: Plasmodium falciparum; experiment: Anti-parasitic activity against chloroquine and pyrimethamine resistant Plasmodium falciparum K1 erythrocytic stages infected in human erythrocytes incubated for 48 hrs by [3H]-hypoxanthine incorporation assay; assay type: functional, organism-based
[10] = Selectivity index, ratio of cytotoxic IC50 for rat L6 cells to EC50 for anti-parasitic activity against Trypanosoma brucei rhodesiense STIB 900; assay type: toxicity, cell-based; details: read-out: Ratio IC50/EC50
[11] = Stability assessed as degradation half life; assay type: physicochemical
[12] = Partition coefficient, logD of the compound at pH 7.4 by HPLC method; assay type: physicochemical; details: octanol/water
[13] = test system: Trypanosoma cruzi; experiment: Anti-parasitic activity against Trypanosoma cruzi Tulahuen C2C4 trypomastigotes infected rat L6 cells incubated for 96 hrs by CPRG/nonidet substrate based […]; assay type: functional, organism-based; details: Tulahuen C2C4, L6, 96 h
[14] = test system: Trypanosoma brucei rhodesiense; experiment: Anti-parasitic activity against Trypanosoma brucei rhodesiense STIB 900 trypomastigotes incubated for 70 hrs by alamar blue dye based assay; assay type: functional, organism-based; details: STIB 900, 70 h
[15] = Intrinsic clearance in human liver microsomes assessed per mg protein at pH 7.4 at 0.5 uM in presence of NADPH regenerating system by LC-MS method; assay type: ADME; details: read-out: CLH
[16] = test system: Leishmania donovani; experiment: Anti-parasitic activity against Leishmania donovani MHOM/ET/67/L82 axenic amastigotes incubated for 70 hrs by alamar blue dye based assay; assay type: functional, organism-based; details: MHOM/ET/67/L82, 70 h
[17] = test system: Liver microsome; experiment: Drug level in human liver microsomes treated with 10 uM 3-Amino-N-cyclopentyl-6-(m-tolyl)pyrazine-2-carboxamide assessed as compound formation after 60 mins presence of NADPH regenerating system by LC-MS method; assay type: ADME; details: 1 h
[18] = test system: Liver microsome; experiment: Drug level in human liver microsomes treated with 10 uM 3-Amino-N-cyclopentyl-6-(m-tolyl)pyrazine-2-carboxamide assessed as compound formation after 60 mins presence of NADPH regenerating system and UDPGA by LC-MS method; assay type: ADME; details: 1 h
[19] = Toxicity in late-stage human african trypanosomiasis patient assessed as mortality rate following 10-day schedule; assay type: organism-based; details: in vivo

serum albumin, sequence (P02768 whole entry): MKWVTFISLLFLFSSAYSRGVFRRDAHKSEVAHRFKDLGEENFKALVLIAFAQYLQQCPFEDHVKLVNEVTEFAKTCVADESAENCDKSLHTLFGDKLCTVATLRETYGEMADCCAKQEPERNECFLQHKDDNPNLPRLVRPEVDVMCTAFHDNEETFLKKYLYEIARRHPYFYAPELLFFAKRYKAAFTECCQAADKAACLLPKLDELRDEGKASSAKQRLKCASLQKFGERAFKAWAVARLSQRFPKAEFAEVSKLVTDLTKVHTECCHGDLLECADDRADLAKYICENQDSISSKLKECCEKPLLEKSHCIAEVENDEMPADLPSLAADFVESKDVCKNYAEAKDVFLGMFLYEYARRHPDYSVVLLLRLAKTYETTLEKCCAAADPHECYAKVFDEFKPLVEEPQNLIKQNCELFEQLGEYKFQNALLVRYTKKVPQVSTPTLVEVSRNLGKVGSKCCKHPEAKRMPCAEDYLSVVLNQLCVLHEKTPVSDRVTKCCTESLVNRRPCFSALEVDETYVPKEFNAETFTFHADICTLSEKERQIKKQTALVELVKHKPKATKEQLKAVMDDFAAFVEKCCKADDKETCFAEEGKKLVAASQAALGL

| Compound | selectivity ratio [1] | pEC50 [2] | solubility kinetic [3] [µg/mL] | solubility kinetic [4] [µg/mL] | IC50 at 70 h [5] [µM] | Drug uptake [6] [ng/g] | Kp at 5 min [7] | fraction unbound [8] | pEC50 [9] | selectivity ratio [10] | half-life [11] [min] | logD [12] | pEC50 [13] | pEC50 [14] | microsomal CLint at 0.5 µM [15] [µL/min/mg] | pEC50 [16] | Drug metabolism [17] | Drug metabolism [18] | mortality at 10 day [19] [%] |
| --- | --- | --- | --- | --- | --- | --- | --- | --- | --- | --- | --- | --- | --- | --- | --- | --- | --- | --- | --- |
| Nc1ncc(-c2ccccc2)nc1C(=O)NC1CCCC1 | > 368 | 6.59 | 6.3 (≈ 22.3 µM) | 25 (≈ 88.5 µM) | 20 | 1192.3 | 5.7 | 0.042 | 5.21 | 140 | 9 | 4.1 | 4.89 | 6.85 | 198 | < 5.00 |  |  |  |
| CCC(C)NC(=O)c1nc(-c2cccc(Cl)c2)cnc1N (centres undefined) | 175 | 6.32 | 1.6 (≈ 5.25 µM) | 1.6 (≈ 5.25 µM) | 39 |  |  | 0.028 | 5.96 | 20 | 12 | 4.4 | 4.60 | 5.69 | 147 | < 5.00 |  |  |  |
| CCC(C)NC(=O)c1nc(-c2ccc(F)cc2)cnc1N (centres undefined) | > 206 | 6.40 | 6.3 (≈ 21.9 µM) | 50 (≈ 173 µM) | 17 | 1069.5 | 5.1 | 0.058 | 5.05 | 61 | 15 | 4 | 4.77 | 6.66 | 119 | < 5.00 |  |  |  |
| CCC(CC)NC(=O)c1nc(-c2cccc(C)c2)cnc1N | 774 | 6.96 | 1.6 (≈ 5.36 µM) | 1.6 (≈ 5.36 µM) | 20 |  |  | 0.036 | 5.39 | 150 | 9 | 4.7 | 4.70 | 6.85 | 194 | < 5.00 |  |  |  |
| CCC(CC)NC(=O)c1nc(-c2ccc(F)c(C)c2)cnc1N | 423 | 7.60 | < 1.6 | < 1.6 | 24 |  |  | 0.022 | 5.74 | 630 | 8 | 4.8 | 4.89 | 7.42 | 212 | < 5.00 |  |  |  |
| CCC(CC)NC(=O)c1nc(-c2ccc(F)cc2C#N)cnc1N | 850 | 7.00 | < 1.6 | 1.6 (≈ 4.89 µM) | 20 |  |  | 0.029 | 5.54 | 230 | 26 | 4.2 | 4.72 | 7.05 | 66 | < 5.00 |  |  |  |
| N#Cc1ccccc1-c1cnc(N)c(C(=O)NC2CCCC2)n1 | 416 | 6.70 | 3.1 (≈ 10.1 µM) | < 1.6 | 11 |  |  | 0.038 | 5.60 | 19 | 10 | 3.9 | 5.28 | 6.24 | 165 | < 5.00 |  |  |  |
| Nc1ncc(-c2cccc(CO)c2)nc1C(=O)NC1CCCC1 |  |  |  |  |  |  |  |  |  |  |  |  |  |  |  |  | metabolite_detected | metabolite_detected |  |
| Nc1ncc(-c2cccc(C(=O)O)c2)nc1C(=O)NC1CCCC1 |  |  |  |  |  |  |  |  |  |  |  |  |  |  |  |  | metabolite_detected | metabolite_detected |  |
| Cc1cccc(-c2cnc(N)c(C(=O)NC3=CCCC3)n2)c1 |  |  |  |  |  |  |  |  |  |  |  |  |  |  |  |  | metabolite_detected | metabolite_detected |  |
| Nc1nc(N)nc(Nc2ccc([As]3SCC(CO)S3)cc2)n1 (centres undefined) [MELARSOPROL] |  |  |  |  |  |  |  |  |  |  |  |  |  |  |  |  |  |  | 5.9 |
